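Growth conditions: 96-well plates. Treatment: test compound, 48 hours, 5 concentrations. Analysis: linear interpolation between bracketing concentrations; unreached endpoints set to highest concentration. Abbreviation: GI50, concentration required for 50% inhibition of growth. TGI marks complete inhibition of growth.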
Columns and labels:
Test in all cases: NCI anticancer screen, dose series, 48 h
OVCAR-4 ovarian = system: OVCAR-4 ovarian
COLO 205 colon = system: COLO 205 colon
EKVX NSCLC = system: EKVX NSCLC
HCT-116 colon = system: HCT-116 colon
OVCAR-5 ovarian = system: OVCAR-5 ovarian
MDA-MB-435 = system: MDA-MB-435
MDA-MB-231 breast = system: MDA-MB-231 breast
HT29 colon = system: HT29 colon
BT-549 breast = system: BT-549 breast
PC-3 prostate = system: PC-3 prostate
IGROV1 ovarian = system: IGROV1 ovarian
UACC-62 melanoma = system: UACC-62 melanoma
MALME-3M melanoma = system: MALME-3M melanoma
U251 CNS = system: U251 CNS
OVCAR-3 ovarian = system: OVCAR-3 ovarian
KM12 colon = system: KM12 colon
HOP-92 NSCLC = system: HOP-92 NSCLC
NCI-H460 lung = system: NCI-H460 lung
NCI-H23 lung = system: NCI-H23 lung
SK-OV-3 ovarian = system: SK-OV-3 ovarian
MOLT-4 leukemia = system: MOLT-4 leukemia
A549 NSCLC = system: A549 NSCLC
SNB-19 CNS = system: SNB-19 CNS
SK-MEL-2 melanoma = system: SK-MEL-2 melanoma
HCC-2998 colon = system: HCC-2998 colon
UO-31 renal = system: UO-31 renal
MDA-N = system: MDA-N
A498 renal = system: A498 renal
SK-MEL-5 melanoma = system: SK-MEL-5 melanoma
RPMI-8226 leukemia = system: RPMI-8226 leukemia
SF-295 CNS = system: SF-295 CNS
HOP-62 NSCLC = system: HOP-62 NSCLC
TK-10 renal = system: TK-10 renal
NCI-H522 lung = system: NCI-H522 lung
HCT-15 colon = system: HCT-15 colon
SK-MEL-28 melanoma = system: SK-MEL-28 melanoma
SN12C renal = system: SN12C renal
UACC-257 melanoma = system: UACC-257 melanoma
SR leukemia = system: SR leukemia
M14 melanoma = system: M14 melanoma
CAKI-1 renal = system: CAKI-1 renal
CCRF-CEM leukemia = system: CCRF-CEM leukemia
DU-145 prostate = system: DU-145 prostate
SF-268 CNS = system: SF-268 CNS
SW-620 colon = system: SW-620 colon
NCI/ADR-RES ovarian = system: NCI/ADR-RES ovarian
MCF7 breast = system: MCF7 breast
ACHN renal = system: ACHN renal
SF-539 CNS = system: SF-539 CNS
RXF 393 renal = system: RXF 393 renal
HS 578T breast = system: HS 578T breast
SNB-75 CNS = system: SNB-75 CNS
OVCAR-8 ovarian = system: OVCAR-8 ovarian
786-0 renal = system: 786-0 renal
LOX IMVI melanoma = system: LOX IMVI melanoma
K-562 leukemia = system: K-562 leukemia
NCI-H226 lung = system: NCI-H226 lung
HL-60(TB) leukemia = system: HL-60(TB) leukemia
T-47D breast = system: T-47D breast

COC(=O)Cc1c(-c2c(CC(=O)OC)c3ccccc3n2C2OC(COC(C)=O)C(OC(C)=O)C(OC(C)=O)C2OC(C)=O)[nH]c2ccccc12 (stereo unspecified)
TGI (OVCAR-4 ovarian): > 100 µM
TGI (COLO 205 colon): > 100 µM
TGI (EKVX NSCLC): > 100 µM
TGI (HCT-116 colon): > 100 µM
TGI (OVCAR-5 ovarian): > 100 µM
TGI (MDA-MB-435): > 100 µM
TGI (MDA-MB-231 breast): > 100 µM
TGI (HT29 colon): > 100 µM
TGI (BT-549 breast): > 100 µM
TGI (PC-3 prostate): > 100 µM
TGI (IGROV1 ovarian): > 100 µM
TGI (UACC-62 melanoma): > 100 µM
TGI (MALME-3M melanoma): > 100 µM
TGI (U251 CNS): > 100 µM
TGI (OVCAR-3 ovarian): > 100 µM
TGI (KM12 colon): > 100 µM
TGI (HOP-92 NSCLC): > 100 µM
TGI (NCI-H460 lung): > 100 µM
TGI (NCI-H23 lung): > 100 µM
TGI (SK-OV-3 ovarian): > 100 µM
TGI (MOLT-4 leukemia): > 100 µM
TGI (A549 NSCLC): > 100 µM
TGI (SNB-19 CNS): > 100 µM
TGI (SK-MEL-2 melanoma): > 100 µM
TGI (HCC-2998 colon): > 100 µM
TGI (UO-31 renal): > 100 µM
TGI (MDA-N): > 100 µM
TGI (A498 renal): > 100 µM
TGI (SK-MEL-5 melanoma): > 100 µM
TGI (RPMI-8226 leukemia): > 100 µM
TGI (SF-295 CNS): > 100 µM
TGI (HOP-62 NSCLC): > 100 µM
TGI (TK-10 renal): > 100 µM
TGI (NCI-H522 lung): > 100 µM
TGI (HCT-15 colon): > 100 µM
TGI (SK-MEL-28 melanoma): > 100 µM
TGI (SN12C renal): > 100 µM
TGI (UACC-257 melanoma): > 100 µM
TGI (SR leukemia): > 100 µM
TGI (M14 melanoma): > 100 µM
TGI (CAKI-1 renal): > 100 µM
TGI (CCRF-CEM leukemia): > 100 µM
TGI (DU-145 prostate): > 100 µM
TGI (SF-268 CNS): > 100 µM
TGI (SW-620 colon): > 100 µM

Cc1[nH]c(-c2cc(N)ccc2Cl)c2c1C(=O)CCCC2
GI50 (OVCAR-4 ovarian): 2.95 µM
TGI (OVCAR-4 ovarian): > 100 µM
GI50 (COLO 205 colon): 3.91 µM
TGI (COLO 205 colon): > 100 µM
GI50 (NCI/ADR-RES ovarian): 4.78 µM
TGI (NCI/ADR-RES ovarian): > 100 µM
GI50 (EKVX NSCLC): 6.09 µM
TGI (EKVX NSCLC): > 100 µM
GI50 (MCF7 breast): 2.32 µM
TGI (MCF7 breast): > 100 µM
GI50 (ACHN renal): 3.42 µM
TGI (ACHN renal): > 100 µM
GI50 (SF-539 CNS): 3.13 µM
TGI (SF-539 CNS): 26.7 µM
GI50 (RXF 393 renal): 2.06 µM
TGI (RXF 393 renal): 6.06 µM
GI50 (HCT-116 colon): 3.92 µM
TGI (HCT-116 colon): > 100 µM
GI50 (OVCAR-5 ovarian): 6.54 µM
TGI (OVCAR-5 ovarian): > 100 µM
GI50 (MDA-MB-435): 3.24 µM
TGI (MDA-MB-435): 19.5 µM
GI50 (MDA-MB-231 breast): 3.82 µM
TGI (MDA-MB-231 breast): > 100 µM
GI50 (HT29 colon): 2.7 µM
TGI (HT29 colon): > 100 µM
GI50 (BT-549 breast): 5.89 µM
TGI (BT-549 breast): > 100 µM
GI50 (PC-3 prostate): 3.5 µM
TGI (PC-3 prostate): > 100 µM
GI50 (HS 578T breast): 2.11 µM
TGI (HS 578T breast): 17.8 µM
GI50 (IGROV1 ovarian): 2.58 µM
TGI (IGROV1 ovarian): 29.1 µM
GI50 (UACC-62 melanoma): 0.809 µM
TGI (UACC-62 melanoma): 7.2 µM
GI50 (SNB-75 CNS): 0.183 µM
TGI (SNB-75 CNS): 5.2 µM
GI50 (MALME-3M melanoma): 2.12 µM
TGI (MALME-3M melanoma): 9.94 µM
GI50 (U251 CNS): 5.75 µM
TGI (U251 CNS): > 100 µM
GI50 (OVCAR-3 ovarian): 3.62 µM
TGI (OVCAR-3 ovarian): 32.5 µM
GI50 (OVCAR-8 ovarian): 3.26 µM
TGI (OVCAR-8 ovarian): > 100 µM
GI50 (KM12 colon): 5.47 µM
TGI (KM12 colon): > 100 µM
GI50 (HOP-92 NSCLC): 1.93 µM
TGI (HOP-92 NSCLC): 63.8 µM
GI50 (NCI-H460 lung): 10.3 µM
TGI (NCI-H460 lung): > 100 µM
GI50 (NCI-H23 lung): 5.06 µM
TGI (NCI-H23 lung): 64.6 µM
GI50 (SK-OV-3 ovarian): 3.56 µM
TGI (SK-OV-3 ovarian): 36.6 µM
GI50 (MOLT-4 leukemia): 8.32 µM
TGI (MOLT-4 leukemia): > 100 µM
GI50 (A549 NSCLC): 7.91 µM
TGI (A549 NSCLC): > 100 µM
GI50 (SNB-19 CNS): 4.53 µM
TGI (SNB-19 CNS): > 100 µM
GI50 (786-0 renal): 3.24 µM
TGI (786-0 renal): > 100 µM
GI50 (SK-MEL-2 melanoma): 7.65 µM
TGI (SK-MEL-2 melanoma): 60.7 µM
GI50 (HCC-2998 colon): 3.39 µM
TGI (HCC-2998 colon): 16.5 µM
GI50 (UO-31 renal): 0.477 µM
TGI (UO-31 renal): 15.1 µM
GI50 (LOX IMVI melanoma): 2.25 µM
TGI (LOX IMVI melanoma): 7.39 µM
GI50 (A498 renal): 3.22 µM
TGI (A498 renal): 9.84 µM
GI50 (SK-MEL-5 melanoma): 6.15 µM
TGI (SK-MEL-5 melanoma): 30.4 µM
GI50 (RPMI-8226 leukemia): 3.63 µM
TGI (RPMI-8226 leukemia): 44.2 µM
GI50 (SF-295 CNS): 8.01 µM
TGI (SF-295 CNS): > 100 µM
GI50 (HOP-62 NSCLC): 2.29 µM
TGI (HOP-62 NSCLC): > 100 µM
GI50 (K-562 leukemia): 3.59 µM
TGI (K-562 leukemia): > 100 µM
GI50 (TK-10 renal): 2.19 µM
TGI (TK-10 renal): 31 µM
GI50 (NCI-H522 lung): 1.13 µM
TGI (NCI-H522 lung): 15.2 µM
GI50 (HCT-15 colon): 3.3 µM
TGI (HCT-15 colon): > 100 µM
GI50 (SK-MEL-28 melanoma): 6.5 µM
TGI (SK-MEL-28 melanoma): > 100 µM
GI50 (NCI-H226 lung): 3.37 µM
TGI (NCI-H226 lung): > 100 µM
GI50 (HL-60(TB) leukemia): 2.03 µM
TGI (HL-60(TB) leukemia): 6.79 µM
GI50 (SN12C renal): 5.01 µM
TGI (SN12C renal): > 100 µM
GI50 (UACC-257 melanoma): 3.49 µM
TGI (UACC-257 melanoma): > 100 µM
GI50 (SR leukemia): 2.64 µM
TGI (SR leukemia): > 100 µM
GI50 (M14 melanoma): 4.37 µM
TGI (M14 melanoma): > 100 µM
GI50 (T-47D breast): 3.47 µM
TGI (T-47D breast): > 100 µM
GI50 (CAKI-1 renal): 0.702 µM
TGI (CAKI-1 renal): 17.9 µM
GI50 (CCRF-CEM leukemia): 1.06 µM
TGI (CCRF-CEM leukemia): > 100 µM
GI50 (DU-145 prostate): 13.1 µM
TGI (DU-145 prostate): > 100 µM
GI50 (SF-268 CNS): 7.99 µM
TGI (SF-268 CNS): > 100 µM
GI50 (SW-620 colon): 12.1 µM
TGI (SW-620 colon): 55.6 µM

From PubChem BioAssay (NCI)
